# Literature values in patent US12594435B2, “Interstitial photodynamic therapy” (Simphotek, Inc., priority 2020, dated 2026).
# Where two headings read alike, the source gives them in different places.
# Assays:
# tumors in mice = settings: for Threshold [^1O2]dose: superficial PDT
# [1] = for β, k4/k2 / ξ photokinetic parameter / σ, k1/(k7[A]): Table 6, Zhu et. al. 2015, Ong et al 2018
# experimental tumours [2] = settings: Mice, Shafirstein et. al., 2018
# experimental tumours [3] = settings: Rabbits, Shafirstein et. al., 2018
# Human prostate = settings: Davidson et.al., 2009
# [4] = Zhu et. al., 2015, labeled [^1O2]rx in the publication
# [5] = vascular PDT, Sheng et. al., 2020
# [6] = simulation parameter used in Dosie simulations, Examples 3 and 4
# [7] = surface PDT, Sheng et. al., 2019
# [8] = I-PDT with light dose as dose metric
compound,measurement,setting,value
2-(1-Hexyloxyethyl)-2-devinyl pyropheophorbide [HPPH],Threshold [^1O2]dose,"tumors in mice; Penjweini et. al., 2016","0.98 ± 0.11 (Penjweini et. al., mM"
same,Threshold PDT-dose,"tumors in mice; surface PDT, Penjweini et. al., 2016","52.62 ± 14.9 (Penjweini et. al., μM J/cm^2"
benzoporphyrin derivative monoacid ring A [BPD],"ε, PS extinction coefficient",[1]; 690 nm,BPD (690 nm): 0.0783 cm^−1μM^−1
same,"β, k4/k2",[1],BPD: 11.9 μM
same,ξ photokinetic parameter,[1],BPD: 51.0 × 10^−3 cm^2mW^−1s^−1
same,"σ, k1/(k7[A])",[1],BPD: 1.7 × 10^−5 μM^−1
same,Threshold [^1O2]dose,tumors in mice; Kim et. al. 2017,0.98 ± 012 (Kim et. al. 2017) mM
same,Threshold [^1O2]dose,tumors in mice; [4],"0.72 ± 0.21 (Zhu et. al., 2015) mM"
same,Threshold PDT-dose,"tumors in mice; surface PDT, Kim et. al., 2017","58 ± 12 (Kim et. al., 2017) μM J/cm^2"
same,Threshold Light Dose,tumors in mice; [5],"Approx. 40 (vascular, Sheng et. J/cm^2"
same,Threshold PDT-dose,tumors in mice; [5],"7.5 (vascular, Sheng et. al., μM J/cm^2"
Oc1cccc(-c2c3nc(c(-c4cccc(O)c4)c4ccc([nH]4)c(-c4cccc(O)c4)c4nc(c(-c5cccc(O)c5)c5ccc2[nH]5)CC4)C=C3)c1 [mTHPC],"ε, PS extinction coefficient",[1]; 650 nm,mTHPC (650 nm): 0.048 cm^−1μM^−1
same,"β, k4/k2",[1],mTHPC: 8.7 μM
same,ξ photokinetic parameter,[1],mTHPC: 30.0 × 10^−3 cm^2mW^−1s^−1
same,"σ, k1/(k7[A])",[1],mTHPC: 2.97 × 10^−5 μM^−1
Photofrin,"ε, PS extinction coefficient",[1]; 630 nm,Photofrin (630 nm): 0.0035 cm^−1μM^−1
same,"β, k4/k2",[1],Photofrin: 11.9 μM
same,ξ photokinetic parameter,[1],Photofrin: 3.7 × 10^−3 cm^2mW^−1s^−1
same,"σ, k1/(k7[A])",[1],Photofrin: 7.6 × 10^−5 μM^−1
same,β,[1]; [6],11.9
same,"δ, low concentration correction",[1]; [6],33
same,ξ,[1]; [6],3.7E-03
same,σ,[1]; [6],7.6E-05
same,Threshold [^1O2]dose,"tumors in mice; Qiu et. al., 2016","> 1.0 (Qiu et. al., 2016) mM"
same,Threshold [^1O2]dose,tumors in mice; [4],"0.56 ± 0.26 (Zhu et. al., 2015) mM"
same,Threshold Light Dose,tumors in mice; [7],"Approx. 100 (Sheng et. al., 2019) J/cm^2"
same,Threshold PDT-dose,tumors in mice; [7],"439 (Sheng et. al., 2019) μM J/cm^2"
same,Threshold Fluence Rate φT,experimental tumours [2]; [8],"8.4 (Shafirstein et. al., 2018) mW/cm^2"
same,Threshold Light Dose,experimental tumours [2]; I-PDT,"≥45 (Shafirstein et. al., 2018) J/cm^2"
same,Threshold Fluence Rate φT,experimental tumours [3]; [8],"16.5 (Shafirstein et. al., 2018) mW/cm^2"
same,Threshold Light Dose,experimental tumours [3]; I-PDT,"≥45 (Shafirstein et. al., 2018) J/cm^2"
CC[C@H]1c2cc3[n-]c4c(c3C)C(=O)[C@H](C(=O)OC)c4c3nc(cc4[n-]c(cc(n2)[C@@H]1C)c(C(C)=O)c4C)[C@@H](C)[C@@H]3CCC(=O)O.[Pd+2] [Tookad],"β, k4/k2",[1],Tookad: 11.9 μM
same,ξ photokinetic parameter,[1],Tookad: 122 × 10^−3 cm^2mW^−1s^−1
same,"σ, k1/(k7[A])",[1],Tookad: 2.6 × 10^−5 μM^−1
same,Threshold Light Dose,Human prostate,">23 (Davidson et.al., 2009) J/cm^2"
